Literature values in patent US6855835B2, “Allomorph of isomer Z hydrochloride of alkylaminofurane derivative” (Pharmexcel SRL, priority 2000, dated 2005).

Assays:
[1] = form 2 compared with form 1; quoted from prior patent (6)
[2] = tested on: histamine H2-receptors; settings: Z isomer compared with E isomer; suggested by authors (10, 11)
Chain of histamine H2-receptors (P25021 whole entry): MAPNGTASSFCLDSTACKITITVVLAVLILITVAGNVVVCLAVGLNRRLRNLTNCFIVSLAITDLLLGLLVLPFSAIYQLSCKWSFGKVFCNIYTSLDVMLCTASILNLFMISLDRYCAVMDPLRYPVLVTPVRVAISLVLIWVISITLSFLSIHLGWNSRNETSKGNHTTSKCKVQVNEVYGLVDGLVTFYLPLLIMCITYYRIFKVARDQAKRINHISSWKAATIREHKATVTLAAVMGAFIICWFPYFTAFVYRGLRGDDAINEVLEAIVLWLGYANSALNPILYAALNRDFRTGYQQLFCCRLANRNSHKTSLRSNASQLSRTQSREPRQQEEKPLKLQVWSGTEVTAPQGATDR

hygroscopicity [1] | affinity for histamine H2-receptors [2] | SMILES
less hygroscopic than form 1 |  | CNC(=C[N+](=O)[O-])NCCSCc1ccc(CN(C)C)o1.Cl (racemic) [form 2, N-[2-[[[5-(dimethylamino)methyl-2-furanyl]methyl]thio]ethyl]-N′-methyl-2-nitro-1,1-ethenediamine hydrochloride]
 | greater configurational affinity | CN/C(=C/[N+](=O)[O-])NCCSCc1ccc(CN(C)C)o1 (single isomer, unassigned) [Z, (N-[2-[[[5-(dimethylamino)methyl-2-furanyl]methyl]thio]ethyl]-N′-methyl-2-nitro-1,1-ethenediamine)]
